These results are taken from patent US9186354B2, “Pyrrolidine derived β3 adrenergic receptor agonists” (Merck Sharp & Dohme Corp., priority 2010, dated 2015).

Where only a bound is given, the exact number is not on record here.

T1 sequence (P13945 whole entry): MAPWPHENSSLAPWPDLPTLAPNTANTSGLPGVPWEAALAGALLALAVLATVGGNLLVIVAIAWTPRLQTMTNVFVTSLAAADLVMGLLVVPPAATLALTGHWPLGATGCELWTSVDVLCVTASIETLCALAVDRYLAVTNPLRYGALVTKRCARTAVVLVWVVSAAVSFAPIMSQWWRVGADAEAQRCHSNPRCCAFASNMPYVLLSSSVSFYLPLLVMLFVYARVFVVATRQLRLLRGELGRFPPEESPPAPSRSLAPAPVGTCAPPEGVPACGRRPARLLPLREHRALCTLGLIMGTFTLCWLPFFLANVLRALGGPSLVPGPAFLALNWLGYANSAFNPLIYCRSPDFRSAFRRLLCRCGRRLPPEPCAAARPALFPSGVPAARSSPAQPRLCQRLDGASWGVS
T2 sequence (P26255 whole entry): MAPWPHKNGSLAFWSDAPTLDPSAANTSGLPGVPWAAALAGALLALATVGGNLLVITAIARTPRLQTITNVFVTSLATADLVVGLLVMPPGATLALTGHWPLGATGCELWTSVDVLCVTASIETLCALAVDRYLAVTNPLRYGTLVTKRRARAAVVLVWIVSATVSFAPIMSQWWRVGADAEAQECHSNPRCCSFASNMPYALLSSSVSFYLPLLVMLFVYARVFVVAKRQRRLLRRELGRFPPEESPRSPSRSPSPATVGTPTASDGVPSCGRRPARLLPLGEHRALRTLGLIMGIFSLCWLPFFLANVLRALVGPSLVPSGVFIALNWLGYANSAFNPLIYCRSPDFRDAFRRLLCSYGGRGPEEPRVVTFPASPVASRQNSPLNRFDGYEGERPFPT

One test addresses T1, human β3 adrenergic receptor (Homo sapiens, UniProt P13945).
T1 construct: stably transfected with the cloned β-adrenergic receptor (β1, β2 or β3); expressed in transfected cells; host or cells: Chinese hamster ovary (CHO) cells, stably transfected
In words: β3AR-cAMP functional assay in CHO cells stably transfected with cloned β3-adrenergic receptor (LANCE). It is filed as cell-based. The settings on record: Table 1; determined with β3AR-cAMP assay, given as ranges; read-out: Human β3 Binding. Background: Time-resolved FRET reads energy transfer from a long-lived donor to a nearby acceptor.
In the case of `O=C(Cn1ncccc1=O)Nc1ccc(C[C@@H]2CC[C@H]([C@H](O)c3ccccc3)N2)cn1` [Example 3, N-[5-({(2S, 5R)-5-[(R)-hydroxy(phenyl)methyl]pyrrolidin-2-yl}methyl)pyridin-2-yl]-2-(6-oxopyridazin-1(6H)-yl)acetamide], the EC50 was in the range of 0.101 to 1 µM.

Regarding `O=C(Nc1ccc(C[C@@H]2CC[C@H]([C@H](O)c3ccccc3)N2)cn1)C1CCc2nccc(=O)n21` (stereo partly drawn) [Example 2, N-[5-({(2S, 5R)-5-[(R)-hydroxy(phenyl)methyl]pyrrolidin-2-yl}methyl)pyridin-2-yl]-4-oxo-4,6,7,8-tetrahydropyrrolo[1,2-a]pyrimidine-6-carboxamide], the EC50 is 0.011 to 0.1 µM.

For `O=C(Cc1nnc(-c2ccccc2)[nH]1)Nc1ccc(C[C@@H]2CC[C@H]([C@H](O)c3ccccc3)N2)cn1` [Example 4, N-[5-([(2S, 5R)-5-[(R)-hydroxy(phenyl)methyl]pyrrolidin-2-yl}methyl)pyridin-2-yl]-2-(5-phenyl-4H-1,2,4-triazol-3-yl)acetamide], the EC50 was in the range of 0.011 to 0.1 µM.

Another test has as its target T2, β3AR (Rattus norvegicus, UniProt P26255).
T2 construct: Following intravenous administration to rats; host or cells: live rats (endogenous receptor, bladder)
Assay: not given
To be noted: rats, intravenous administration; cited from earlier work.
As to `C[C@H](Cc1ccc2c(c1)OC(C(=O)[O-])(C(=O)[O-])O2)NC[C@H](O)c1cccc(Cl)c1.[Na+].[Na+]` [CL316243], the bladder pressure entry is listed as “reduces bladder pressure”.

Still in this test, the particulars now being: rats, intravenous administration; prolongation of micturition interval without increasing residual urine volume; cited from earlier work.
On to `C[C@H](Cc1ccc2c(c1)OC(C(=O)[O-])(C(=O)[O-])O2)NC[C@H](O)c1cccc(Cl)c1.[Na+].[Na+]` [CL316243], for which the “bladder capacity (cystometric studies)” value is “increases bladder capacity”.

A further test has as its target T1, human β3 adrenergic receptor. Nature of the test: β3AR-cAMP functional assay in CHO cells stably transfected with cloned β3-adrenergic receptor (LANCE). To be noted: Table 2; Beta-3 agonist in vitro functional assay, given as ranges; read-out: Human β3 Agonist Functional Activity. It is filed as cell-based. Here is the method:
Functional Assay: cAMP production in response to ligand is measured according to Barton, et al. (1991, Agonist-induced desensitization of D2 dopamine receptors in human Y-79 retinoblastoma cells. Mol. Pharmacol. […]) modified as follows. cAMP production is measured using a homogenous time-resolved fluorescence resonance energy transfer immunoassay (LANCE™, Perkin Elmer) according to the manufacture's instructions. Chinese hamster ovary (CHO) cells, stably transfected with the cloned β-adrenergic receptor (β1, β2 or β3) are harvested after 3 days of subculturing. Harvesting of cells is done with Enzyme-free Dissociation Media (Specialty Media). Cells are then counted and resuspended in assay buffer (Hank's Balanced salt solution supplemented with 5 mM HEPES, […]) containing a phosphodiesterase inhibitor (IBMX, 0.6 mM). The reaction is initiated by mixing 6,000 cells in 6 μL with 6 μL Alexa Fluor labeled cAMP antibody (LANCE™ kit) which is then added to an assay well containing 12 μL of compound (diluted in assay buffer to 2× final concentration). The reaction proceeds for 30 minutes at room temperature and is terminated by the addition of 24 ul detection buffer (LANCE™ kit). The assay plate is then incubated for 1 hour at room temperature and time-resolved fluorescence measured on a Perkin Elmer Envision reader or equivalent. The unknown cAMP level is determined by comparing fluorescence levels to a cAMP standard curve.
The non-selective, full agonist […] ligand isoproterenol is used at all three receptors to determine maximal stimulation. The human β3 adrenergic receptor (AR) selective ligand (S)—N-[4-[2-[[2-hydroxy-3-(4-hydroxyphenoxy)propyl]amino]ethyl]-phenyl]-4-iodobenzenesulfonamide is used as a control in all assays. Isoproterenol is titrated at a final concentration in the assay of 10^−10 M to 10^−5 M and the selective ligand (S)—N-[4-[2-[[2-hydroxy-3-(4-hydroxyphenoxy)propyl]amino]ethyl]phenyl]-4-iodobenzenesulfonamide is titrated at the β3 receptor at concentration of 10^−10 M to 10^−5 M. Unknown ligands are titrated at all 3 β-adrenergic receptor subtypes at a final concentration in the assay of 10^−10 M to 10^−5 M to determine the EC50. The EC50 is defined as the concentration of compound that gives 50% activation of its own maximum.
With `CCc1nnc([C@H]2[C@@H]3CN(C(=O)c4ccc(C[C@@H]5CC[C@H]([C@H](O)c6ccccc6)N5)cn4)C[C@@H]32)o1` [Example 12, (R)-{(2R, 5S)-5-[(6-{[6-(5-ethyl-1,3,4-oxadiazol-2-yl)-3-azabicyclo[3.1.0]hex-3-yl]carbonyl}pyridin-3-yl)methyl]pyrrolidin-2-yl)(phenyl)methanol], the EC50 was in the range of 0.011 to 0.1 µM.

For `Cn1nnnc1[C@H]1[C@@H]2CN(C(=O)c3ccc(C[C@@H]4CC[C@H]([C@H](O)c5ccccc5)N4)cn3)C[C@@H]21` [Example 9, (R)-{(2R, 5S)-5-[(6-{[6-(1-methyl-1H-tetrazol-5-yl)-3-azabicyclo[3.1.0]hex-3-yl]carbonyl}pyridin-3-yl)methyl]pyrrolidin-2-yl)(phenyl)methanol], the EC50 was 0.011 to 0.1 µM.

As for `O=C(c1ccc(C[C@@H]2CC[C@H]([C@H](O)c3ccccc3)N2)cn1)N1C[C@@H]2[C@H](C1)[C@H]2c1nnc(-c2cnccn2)o1` [Example 13, (R)-phenyl{(2R, 5S)-5-[(6-{[6-(5-pyrazin-2-yl-1,3,4-oxadiazol-2-yl)-3-azabicyclo[3.1.0]hex-3-yl]carbonyl}pyridin-3-yl)methyl]pyrrolidin-2-yl)methanol], the EC50 is less than 0.01 µM.

For the compound `O=C(c1ccc(C[C@@H]2CC[C@H]([C@H](O)c3ccccc3)N2)cn1)N1C[C@@H]2[C@H](C1)[C@H]2c1nnnn1CC(F)(F)F` [Example 10], the EC50 lay in the range of 0.011 to 0.1 µM.

For `O=C(c1ccc(C[C@@H]2CC[C@H]([C@H](O)c3ccccc3)N2)cn1)N1CCC2(CCOC2=O)CC1` [Example 8, 8-{[5-({(2S, 5R)-5-[(R)-hydroxy(phenyl)methyl]pyrrolidin-2-yl}methyl)pyridin-2-yl]carbonyl}-2-oxa-8-azaspiro[4.5]decan-1-one], the EC50 lay in the range of 0.011 to 0.1 µM.

As to `O=C(c1ccc(C[C@@H]2CC[C@H]([C@H](O)c3ccccc3)N2)cn1)N1CCN(Cc2nnn(CC(F)(F)F)n2)CC1` [Example 14, (R)-phenyl[(2R, 5S)-5-({6-[(4-{[2-(2,2,2-trifluoroethyl)-2H-tetrazol-5-yl]methyl}piperazin-1-yl)carbonyl]pyridin-3-yl}methyl)pyrrolidin-2-yl]methanol], the EC50 is 0.011 to 0.1 µM.

In the case of `O=C(c1ccc(C[C@@H]2CC[C@H]([C@H](O)c3ccccc3)N2)cn1)N1C[C@@H]2[C@H](C1)[C@H]2c1nnco1` [Example 11, (R)-{(2R, 5S)-5-[(6-{[6-(1,3,4-oxadiazol-2-yl)-3-azabicyclo[3.1.0]hex-3-yl]carbonyl}pyridin-3-yl)methyl]pyrrolidin-2-yl)(phenyl)methanol], the EC50 lay within 0.011 to 0.1 µM.

The test is the same for the next values; noted with them: cAMP production, CHO cells expressing human β3 AR; read-out: human β3 functional activity.
On to `O=C(c1ccc(C[C@@H]2CC[C@H]([C@H](O)c3ccccc3)N2)cn1)N1CCC(c2nnnn2CC(F)(F)F)CC1` [Example 5, (R)-Phenyl-(2R,5S)-5-{[6-({4-[1-(2,2,2-trifluoroethyl)-1H-tetrazol-5-yl]piperidin-1-yl}carbonyl-pyridin-3-yl]methyl}pyrrolidin-2-yl)methanol], for which the EC50 lay within 0.101 to 1 µM.

On to `O=C(c1ccc(C[C@@H]2CC[C@H]([C@H](O)c3ccccc3)N2)cn1)N1CCN(Cc2ccccn2)CC1` [Example 7, (R)-phenyl[(2R,5S)-5-[(6-{[4-(pyridin-2-ylmethyl)piperazin-1-yl]carbonyl}pyridin-3-yl)methyl]pyrrolidin-2-yl]methanol], for which the EC50 lay within 0.101 to 1 µM.

With `O=C(Nc1ccc(C[C@@H]2CC[C@H]([C@H](O)c3ccccc3)N2)cn1)[C@@H]1CCc2scnc21` [Example 1], the EC50 turned out to be 0.0204 µM.

For the compound `O=C(c1ccc(C[C@@H]2CC[C@H]([C@H](O)c3ccccc3)N2)cn1)N1C[C@@H]2C(n3cnnn3)[C@@H]2C1` (stereo partly drawn) [Example 6, (R)-phenyl[(2R,5S)-5-[(6-{[(1R,5S,6S)-6-(1H-tetrazol-1-yl)-3-azabicyclo[3.1.0]hex-3yl]carbonyl}pyridin-3-yl)methyl]pyrrolidine-2-yl]methanol], the EC50 was 0.011 to 0.1 µM.
